Measured values published in US7611713B2 (priority 1999, dated 2009).
No end group written: not given here.

How the values were obtained:
[1] = test system: T helper lymphocytes; details: individuals regardless of HLA type; cited from earlier work
[2] = target: B*0702 (Homo sapiens, UniProt P01889); test: biochemical; format: binding
[3] = target: B*3501 (Homo sapiens, UniProt P01889, A329T/A93T/A95T/C349S/D201E/D98Y/E176V/E187L/E204Q/E69T/I218V/K202T/L119I/Q94N/R155S/R180L/S121R/S35A/S48A/T118I/V127L/V306I/V36M/Y140S/Y91F); test: HLA class I peptide binding assay, B*3501
[4] = target: B*5401 (Homo sapiens, UniProt P01889, A329T/C349S/D138N/D201E/E176V/E187T/E204Q/E69G/I76V/K202T/L119W/R155S/R180L/S121T/S35A/S48A/V127L/V306I/V36M/Y140L); test: biochemical; format: binding
[5] = target: B*5301 (Homo sapiens, UniProt P01889, A329T/A93T/A95T/C349S/D201E/D98Y/E176V/E187L/E204Q/E69T/G107R/I218V/K202T/L105A/L119I/N104I/Q94N/R106L/R155S/R180L/S101N/S121R/S35A/S48A/T118I/V127L/V306I/V36M/Y140S/Y91F); test: HLA class I peptide binding assay, B*5301

Substance | stimulation of T helper lymphocyte response [1] | IC50 [2] [nM] | IC50 [3] [nM] | IC50 [4] [nM] | IC50 [5] [nM]
aKXVWANTLKAAa | stimulate the response of T helper lymphocytes from most individuals | – | – | – | –
FPIPSSWAF [Peptide 2506] | – | 24 | – | – | –
FPHCLAFSA [Peptide 2513] | – | 3670 | 6.5 | 0.6 | 137
FPHCLAFSL [Peptide 2510] | – | 74 | – | – | 15
FPFCLAFSY [Peptide 2511] | – | – | 6.5 | 5.1 | 4.8
FPHCLAFAL [Peptide 2509] | – | 25 | – | 24 | 5
FPHCLAFSI [Peptide 2512] | – | 675 | – | 1 | 3.8
